This is an account of results in BindingDB's records for doi:10.1016/j.bmc.2010.03.023 (Swedish University Agricultural Sciences, 2010).

The term IC50 denotes the concentration that gives 50% inhibition. A high value points to weaker potency.

One assay addresses T1, Thymidine kinase (Ureaplasma parvum serovar 3 (strain ATCC 700970), UniProt Q9PPP5).
T1 sequence (Q9PPP5 whole entry): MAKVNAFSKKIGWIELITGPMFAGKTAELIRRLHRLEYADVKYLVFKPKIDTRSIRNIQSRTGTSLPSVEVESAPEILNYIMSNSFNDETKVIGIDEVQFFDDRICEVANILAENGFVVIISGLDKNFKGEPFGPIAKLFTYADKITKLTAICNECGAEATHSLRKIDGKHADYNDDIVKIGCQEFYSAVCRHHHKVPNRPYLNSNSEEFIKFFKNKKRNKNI
Put plainly: Inhibition of Ureaplasma parvum thymidine kinase by liquid scintillation counting.

Assay [1] addresses T2, Thymidine kinase, cytosolic (Homo sapiens, UniProt P04183).
T2 sequence (P04183 whole entry): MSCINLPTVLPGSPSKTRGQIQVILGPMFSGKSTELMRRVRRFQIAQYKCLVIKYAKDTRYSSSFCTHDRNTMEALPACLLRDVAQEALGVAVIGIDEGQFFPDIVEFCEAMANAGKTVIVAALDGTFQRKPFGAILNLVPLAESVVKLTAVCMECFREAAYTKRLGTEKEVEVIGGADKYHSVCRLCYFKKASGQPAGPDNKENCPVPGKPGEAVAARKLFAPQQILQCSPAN
In words: Inhibition of human TK1 by liquid scintillation counting.

Structures are written as SMILES.

As for `Cc1cn([C@H]2C[C@H](n3cc(-c4ccccc4)nn3)[C@@H](CO)O2)c(=O)[nH]c1=O` [3'-Deoxy-3'-(4-phenyl-1,2,3-triazol-1-yl)-beta-D-thymidine], the IC50 on Thymidine kinase came out at 200 µM.
Turning to `Cc1cn([C@H]2C[C@H](n3cc(C(C)(C)C)nn3)[C@@H](CO)O2)c(=O)[nH]c1=O` [3'-(4-tert-Butyl-1,2,3-triazol-1-yl)-3'-deoxythymidine], the IC50 is 114 µM in assay [1] and 318 µM against Thymidine kinase.
Turning to `Cc1cn([C@H]2C[C@H](n3cc(CCc4ccccc4)nn3)[C@@H](CO)O2)c(=O)[nH]c1=O` [3'-(4-(2-Phenyl-ethyl)-1,2,3-triazole-1-yl)-2'-deoxythymidine], the IC50 against Thymidine kinase stood at 120 µM.
On the same count and under the same terms, under `Cc1cn([C@H]2C[C@H](n3cc(-c4ccccn4)nn3)[C@@H](CO)O2)c(=O)[nH]c1=O` [3'-Deoxy-3'-(4-pyridin-2-yl-1,2,3-triazol-1-yl)-beta-D-thymidine] stands 211 µM.
